Measurements published in patent EP1100539B1, “COMBINATION OF ACTIVE SUBSTANCES, ESPECIALLY FOR THE PROPHYLAXIS AND THERAPY OF ISCHAEMIC ORGANIC LESIONS AND REPERFUSION SYNDROMES” (Vascular Biotech GmbH, priority 1998, dated 2000).
Where “and” joins values, the source holds several entries; their conditions need not be identical. Equal entries are not always repeated. Entries after “also recorded” stand apart in the source; their conditions may differ.

Columns and labels:
[1] = tested on: Meerschweinchenherzen; experiment: Working guinea pig heart, ischaemia/reperfusion with activated PMN and platelets (Versuchsgruppe 1); design: species or system Meerschweinchen; details: for Herzleistung [% der initialen Leistung] / Interstitielles Volumen / Koronarfluß [% des Basalflusses]: flavone derivative 3*10^-5 M, individual hearts
Experimental: Pathogene Wirkung von gleichzeitig aktivierten PMN und Thrombozyten im ischämischen Herzen. Als Studienobjekt dienten arbeitende, also Volumen gegen bestimmte Drucke auswerfende Meerschweinchenherzen. […] Thrombin, FMLP ([…]-Formyl-[…]) und […] Interaktion der Blutzellen mit dem koronaren Endothel bei diesen Versuchen. Tabelle 3: ^i Als Blutzellpräparate wurden eingesetzt: a) hochreine PMN (1-2*10^5/ml), […] Vorinkubation mit 100 μM […]) bzw. […] von PMN und TASS (bzw. T) in jeweils analogen Konzentrationen. Tabelle 3 gibt die unter […] bei […] von PMN und Thrombozyten (TASS = […] Vorinkubation mit 100μM […] = nicht […].

[2] = tested on: venoläre Endothelzellen; experiment: Hydraulic conductivity (LP) across confluent venular endothelial cell layers on porous filters (Versuchsgruppe 2 / Beispiel 12); assay type: cell-based, Meerschweinchen
Text: Als Studienobjekt dienten bis zur Konfluenz etablierte Schichten venolärer Endothelzellen auf porösen Filtern, die in einer speziell entwickelten Apparatur zur Trennung zweier Flüssigkeitskompartimente eingesetzt wurden. So konnte z. B. der druckabhängige Wassertransport (hydraulische Konduktivität = LP mit der Dimension 10^-5 cm / s / cm H2O) über die gezüchteten Endothelschichten unter dem Einfluß von Blutzellen unter entzündlichen Bedingungen studiert werden.
Details der Versuchsanordnung gehen aus den Abb. 1 und 2 hervor. Abbildung 1 zeigt ein wiederverwendbares, autoklavierbares Filterspannsystem bestehend aus (1) dem Formteil aus Polycarbonat, (2) dem Polycarbonatfilter, (3) dem stählernen Spannring und (4) dem Haltering aus Polycarbonat. Die Darstellung rechts neben dem Stapel der Einzelteile zeigt einen Querschnitt und eine Aufsicht des zusammengefügten Systems. Abbildung 2 zeigt eine Versuchsapparatur zur Messung hydraulischer Konduktivitäten von konfluenten Zellschichten, (1) Basisteil mit Magnetrührer (1a), (2) basales Flüssigkeitskompartiment mit Stopfen (2a) bzw. Zugang für Eppendorfpipetten (2b), (3) Steigrohr, (4) oberes Flüssigkeitskompartiment, zwischen den Flüssigkeitskompartimenten (2) und (4) liegt der ausgespannte Filter, (5), (6), (7) peristaltische Pumpen, (8) Vorratsgefäß für die Konstanthaltung des hydrostatischen Niveaus im oberen Flüssigkeitskompartiment, (9) Sammelgefäß für filtriertes Volumen.
Der Nachweis der Wirkung von Verbindungen als Hemmstoffe der Kontraktilität von venolären Endothelzellen erfolgt analog zur in Versuchsgruppe 2 charakterisierten Vorgehensweise unter Verwendung der dort beschriebenen Versuchsanordnung (vgl. Abb. 1 und 2) und wird hier am Beispiel des Apigenins (chemische Formel siehe Tabelle 1) dargestellt.
Venoläre Endothelzellen werden unter Verwendung einer speziellen, nachstehend beschriebenen Technik isoliert und auf porösen Polycarbonatfiltern (Porendurchmesser 0,4 µm, Fa. Nucleopore, Pleasanton, USA) unter Verwendung ebenfalls nachstehend beschriebener Zellkulturtechniken bis zur Konfluenz kultiviert. Diese endothelbeschichteten Filter werden in einer speziellen Apparatur (siehe Abb. 1 und 2) zur Trennung zweier Flüssigkeitskompartimente eingesetzt. Als Meßgröße für die Kontraktilität der venolären Endothelzellen dient der druckabhängige Wassertransport (hydraulische Konduktivität = LP mit der Dimension 10^-5 cm / s / cm H2O) über die gezüchteten Endothelschichten, der bei Kontraktion der Endothelzellen durch Übergang von der pflastersteinartigen zur sphärischen Form (vgl. Versuchsgruppe 3 mit Abb. 3 und 4) und die damit einhergehende Öffnung von Interzellularspalten zunimmt
Eine Lösung von Plasmasalzen (=physiologische Salzlösung, Zusammensetzung siehe unten) mit Zusatz von 0,1% Albumin und von aus peripherem Blut wie nachfolgend beschrieben isolierten Granulozyten (=PMN, Konzentration 10^5/ml) und Thrombozyten (10^6/ml) wird mit 1 µM FMLP und 1 U/ml Thrombin versetzt. Durch Zentrifugieren (10 min bei 1000 g) wird der Überstand gewonnen und in das obere Flüssigkeitskompartiment der Versuchsapparatur eingebracht. Dadurch erhöht sich - als Ausdruck der Kontraktion der venoiären Endothelzellen - die hydraulische Konduktivität gegenüber dem Ausgangswert (Nr. 1 in Tabelle 4) um ca. 1600 % (Nr. 10 in Tabelle 4).
Zur Dissoziation des Myokardgewebes werden zunächst mit Krebs-Henseleitlösung (KHL) nach Langendorff bei 120 mmHg 10 min perfundierte Meerschweinchenherzen 35 min lang mit einem in KHL angesetzten Proteasegemisch perfundiert (42 mg Kollagenase D + 60 mg Dispase II + 5 mg Trypsin + 58 mg Serumalbumin aus Rinderblut, gelöst in 42 ml Ca^2+-freier KHL; 1 ml/min; Kollagenase und Dispase: Boehringer, Mannheim, Trypsin: 1:250, Serva, Heidelberg). […]

[3] = tested on: venolären Endothelzellen (VEC); experiment: Time-lapse video microscopy of venular endothelial cell layers, opening/sealing of intercellular gaps (Versuchsgruppe 3); assay type: cell-based; details: for Abdichtung der Interzellularspalten: in presence of activated PMN and Thrombozyten (Abb. 3), 50 µM each
Experimental: In vitro kultivierte Schichten aus venolären Endothelzellen (VEC) werden unter Einsatz von Zeitraffervideomikrokinematographie (siehe Abb. 5) mit speziell entwickelter Methodik direkt beobachtet. Die durch aktivierte Thrombozyten (Anwendung von 1 U/ml Thrombin) und aktivierte PMN (Anwendung von 1 µM FMLP) induzierte Öffnung von Endothelbarrieren (= Öffnung der Interzellularspalten der Endothelzellen) kann so im Zeitablauf dokumentiert werden. Als Beispiel dient eine Serie von Aufnahmen, die den direkten Angriff der Blutzellen dokumentiert (Abb. 3) bzw. eine analoge Serie, die mit dem Überstand der aktivierten Blutzellen durchgeführt wurde (Abb. 4).
Die durch die Blutzellen zunächst geweiteten Interzellularspalten werden durch die Wirkstoffe wieder abgedichtet.
Abbildung 5 zeigt den experimentellen Aufbau für die videomikroskopische Beobachtung zellulärer Interaktionen an Endotheloberflächen: A-Gewebekulturmikroskop, B-Spezialinkubator mit Steuereinheit C, D-Gaszylinder mit 5% CO2, E-Waschflasche, F-Videokamera, G-Kamera-Kontroll-Einheit, H-Videorecorder, I-Monitor, J-Fotoapparat.

[4] = tested on: ischämische Herzschäden; details: oral, initial 100 mg, then 20-40 mg/d; 17187 Patienten; cited from earlier work
[5] = PMN+T (platelets not preincubated with Acetylsalicylsäure)
[6] = PMN+TASS (platelets preincubated 1 h with 100 µM Acetylsalicylsäure, washed)
[7] = FMLP-activated PMN alone (Nr. 4-6), 50 µM
[8] = IPA + PMN (10^5/ml) + Thrombin (1 U/ml) + 1 µM FMLP, substance 50 µM, control without substance 5,40, baseline 1,80
[9] = IPA + supernatant of thrombin-activated Thrombozyten (10^6/ml) and FMLP-activated PMN (10^5/ml), substance 50 µM, control without substance 31,2, baseline 1,80

## O=c1cc(-c2ccc(O)cc2)oc2cc(O)cc(O)c12 [Apigenin]
[1]; [5]
  Herzleistung [% der initialen Leistung]: 52 % der initialen Leistung and 67 % der initialen Leistung and 74 % der initialen Leistung and 73 % der initialen Leistung and 64 % der initialen Leistung and 71 % der initialen Leistung
  Interstitielles Volumen: 142 µL/g and 201 µL/g and 177 µL/g and 166 µL/g and 130 µL/g
  Koronarfluß [% des Basalflusses]: 56 % des Basalflusses (2×) and 49 % des Basalflusses and 53 % des Basalflusses and 59 % des Basalflusses and 65 % des Basalflusses
[1]; [6]
  Herzleistung [% der initialen Leistung]: 94 % der initialen Leistung and 96 % der initialen Leistung and 89 % der initialen Leistung and 88 % der initialen Leistung and 97 % der initialen Leistung
  Interstitielles Volumen: 95 µL/g and 120 µL/g and 105 µL/g and 102 µL/g and 97 µL/g and 91 µL/g
  Koronarfluß [% des Basalflusses]: 102 % des Basalflusses and 107 % des Basalflusses and 98 % des Basalflusses and 95 % des Basalflusses and 91 % des Basalflusses and 109 % des Basalflusses
[1]; acute application of the flavonoid alone
  Verschlechterung der postischämischen Funktionsdaten (ΔP/Δt; interstitielles Volumen; Koronarfluß): abgeschwächt
[1]; flavonoid applied in combination with Acetylsalicylsäure
  Verschlechterung der postischämischen Funktionsdaten (ΔP/Δt; interstitielles Volumen; Koronarfluß): vollständig aufgehoben
[2]; [7]
  Effect on increase of LP: keine Erhöhung von LP
[2]; [8]
  LP [10^-5 cm/s/cm H2O]: 1,75 ± 0,06 10^-5 cm/s/cm H2O
[2]; IPA + PMN (10^5/ml) + Thrombozyten (10^6/ml) + Thrombin (1 U/ml) + 1 µM FMLP, each substance 50 µM, control without substance 33,7, baseline 1,80
  LP [10^-5 cm/s/cm H2O]: 25,5 ± 4,1 10^-5 cm/s/cm H2O
[2]; [9]
  LP [10^-5 cm/s/cm H2O]: 1,90 ± 0,07 10^-5 cm/s/cm H2O
[2]; simultaneously activated Thrombozyten and PMN (Nr. 7-9), 50 µM each
  Effect on increase of LP: hemmt diesen Effekt nur schwach
[2]; supernatant of activated PMN and Thrombozyten (Nr. 10, 11), 50 µM
  Kontraktion der venolären Endothelzellen (hydraulische Konduktivität): fast vollständig gehemmt

## C[C@@H]1O[C@@H](OC[C@H]2O[C@@H](Oc3c(-c4ccc(OCCO)c(OCCO)c4)oc4cc(OCCO)cc(O)c4c3=O)[C@H](O)[C@@H](O)[C@@H]2O)[C@H](O)[C@H](O)[C@H]1O [Trihydroxyethylrutosid]
[3]
  Abdichtung der Interzellularspalten: nicht zur Abdichtung der Interzellularspalten
[3]; supernatant of activated PMN and Thrombozyten, blood cells absent (Abb. 4), without Acetylsalicylsäure
  Abdichtung der Spalten / Reparatur der Endothelschicht: fast vollständige Reparatur der Endothelschicht; also recorded: Endothel-reparativen Effekt

## CC(=O)Oc1ccccc1C(=O)O [Acetylsalicylsäure, reference compound]
[4]
  ischämische Herzschäden: signifikant
[1]; platelets preincubated with 100 µM Acetylsalicylsäure, no flavonoid
  Verschlechterung der postischämischen Funktionsdaten (ΔP/Δt; interstitielles Volumen; Koronarfluß): lediglich teilweisen Abschwächung
[3]
  Abdichtung der Interzellularspalten: nicht zur Abdichtung der Interzellularspalten
[2]; [7]
  Effect on increase of LP: keinen Effekt
[2]; [8]
  LP [10^-5 cm/s/cm H2O]: 5,78 ±0,68 10^-5 cm/s/cm H2O
[2]; [9]
  LP [10^-5 cm/s/cm H2O]: 28,2 ± 1,7 10^-5 cm/s/cm H2O
